pIC50: −log10 of the molar value.
What was measured:
human JAK2 = human JAK2 (Homo sapiens (Human), UniProt O60674); settings: read-out: JAK2 IC50
human FAK = human FAK (Homo sapiens (Human), UniProt Q05397); settings: read-out: FAK IC50
human FAK, sequence (Q05397 whole entry): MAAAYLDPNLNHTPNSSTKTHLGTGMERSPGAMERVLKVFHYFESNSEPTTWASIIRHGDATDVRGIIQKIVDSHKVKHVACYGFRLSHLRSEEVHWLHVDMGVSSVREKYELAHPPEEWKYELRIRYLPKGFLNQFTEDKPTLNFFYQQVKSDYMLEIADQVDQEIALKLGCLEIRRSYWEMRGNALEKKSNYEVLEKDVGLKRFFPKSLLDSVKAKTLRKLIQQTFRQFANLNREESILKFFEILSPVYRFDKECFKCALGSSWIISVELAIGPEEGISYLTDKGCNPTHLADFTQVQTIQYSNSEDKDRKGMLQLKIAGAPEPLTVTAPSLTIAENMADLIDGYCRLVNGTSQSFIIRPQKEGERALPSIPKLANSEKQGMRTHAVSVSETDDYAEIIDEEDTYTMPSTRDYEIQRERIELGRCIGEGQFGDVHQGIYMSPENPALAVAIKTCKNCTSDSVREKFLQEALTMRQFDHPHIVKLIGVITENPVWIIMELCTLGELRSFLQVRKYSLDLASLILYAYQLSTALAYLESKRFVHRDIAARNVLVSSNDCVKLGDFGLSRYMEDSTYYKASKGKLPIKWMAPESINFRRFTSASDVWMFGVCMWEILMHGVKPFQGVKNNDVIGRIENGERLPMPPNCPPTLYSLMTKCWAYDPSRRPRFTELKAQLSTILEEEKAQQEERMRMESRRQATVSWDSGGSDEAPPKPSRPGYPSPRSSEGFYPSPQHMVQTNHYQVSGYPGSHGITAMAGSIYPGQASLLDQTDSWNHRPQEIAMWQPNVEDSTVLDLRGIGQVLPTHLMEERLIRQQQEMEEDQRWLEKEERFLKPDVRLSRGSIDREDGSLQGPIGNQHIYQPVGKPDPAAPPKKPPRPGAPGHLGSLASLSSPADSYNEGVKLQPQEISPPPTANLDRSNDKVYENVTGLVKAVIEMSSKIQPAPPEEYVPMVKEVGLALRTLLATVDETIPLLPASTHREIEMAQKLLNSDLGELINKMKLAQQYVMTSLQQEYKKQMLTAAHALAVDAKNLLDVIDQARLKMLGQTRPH
Protocol: The ability of compounds to inhibit the kinase activity of baculovirus-expressed human FAK and PYK2 was measured using the 96-well plate TRF assay system described above for JAK2. […] For the FAK kinase assay, the reaction mixture (total volume=100 μL/well) contained 20 mM HEPES (pH 7.2), 10 μM ATP, 5 mM MgCl2, 0.5 mM DTT, 0.1% BSA, and test compound (diluted in DMSO; 2.5% DMSO final in assay). For PYK2, the 100 μL assay solution consisted of 20 mM HEPES (pH 7.2), 3 μM ATP, 5 mM MnCl2, 0.1% BSA, and test compound (diluted in DMSO; 2.5% DMSO final in assay). Enzyme (10 ng/mL FAK or 25 ng/mL PYK2) was added and the reaction was allowed to proceed at room temperature for 30 min. Detection of the phosphorylated product was performed by adding 100 μL/well of Eu—N1 labeled PY100 antibody diluted 1:75000 in 0.25% BSA in TBS-T (PerkinElmer #AD0041). […] Inhibition data were analyzed using ActivityBase and IC50 curves generated using XLFit.

human JAK2, sequence (O60674 815-1132): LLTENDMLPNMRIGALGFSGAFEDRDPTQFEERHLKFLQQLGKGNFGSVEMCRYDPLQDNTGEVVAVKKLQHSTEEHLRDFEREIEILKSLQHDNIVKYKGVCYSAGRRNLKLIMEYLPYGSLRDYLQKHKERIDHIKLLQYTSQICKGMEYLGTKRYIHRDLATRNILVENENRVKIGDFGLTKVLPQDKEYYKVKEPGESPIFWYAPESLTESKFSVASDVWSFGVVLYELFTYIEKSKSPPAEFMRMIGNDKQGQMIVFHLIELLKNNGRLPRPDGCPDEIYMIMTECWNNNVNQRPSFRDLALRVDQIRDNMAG

SMILES	pIC50 (human JAK2)	pIC50 (human FAK)
COCc1ccccc1-c1cccc2nc(Nc3ccc4c(c3)CCN(CC(=O)N(C)C)CC4)nn12 [Example 229, 2-{7-[5-(2-Methoxymethyl-phenyl)-[1,2,4]triazolo[1,5-a]pyridin-2-ylamino]-1,2,4,5-tetrahydro-benzo[d]azepin-3-yl}-N,N-dimethyl-acetamide]	7.32	5.52
CN1CCN(c2cccc(Nc3nc4c(Nc5ccccc5CN(C)S(C)(=O)=O)cccn4n3)c2)CC1 [Example 172, N-Methyl-N-(2-{2-[3-(4-methyl-piperazin-1-yl)-phenylamino]-[1,2,4]triazolo[1,5-a]pyridin-8-ylamino}-benzyl)-methanesulfonamide]	6.34	5.52
CN(c1cccc(-c2cccn3nc(Nc4ccc(OCCN5CCCC5)cc4)nc23)c1)S(C)(=O)=O [Example 128, N-Methyl-N-(3-{2-[4-(2-pyrrolidin-1-yl-ethoxy)-phenylamino]-[1,2,4]triazolo[1,5-a]pyridin-8-yl}-phenyl)-methanesulfonamide]	7.47	5.64
CN1CCC(c2cccc(Nc3nc4c(-c5ccccc5N(C)S(C)(=O)=O)cccn4n3)c2)CC1 [Example 130, N-Methyl-N-(2-{2-[3-(1-methyl-piperidin-4-yl)-phenylamino]-[1,2,4]triazolo[1,5-a]pyridin-8-yl}-phenyl)-methanesulfonamide]	5.92	5.52
CN1CCN(c2cccc(Nc3nc4c(NCc5cccnc5)cccn4n3)c2)CC1 [Example 153, N(2)-[3-(4-Methyl-piperazin-1-yl)-phenyl]-N(8)-pyridin-3-ylmethyl-[1,2,4]triazolo[1,5-a]pyridine-2,8-diamine]	6.19	5.19
CC(C)(C)OC(=O)N1CCC(n2cc(Nc3nc4c(-c5ccc(S(C)(=O)=O)cc5)cccn4n3)cn2)CC1 [Example 212, 4-{4-[8-(4-Methanesulfonyl-phenyl)-[1,2,4]triazolo[1,5-a]pyridin-2-ylamino]-pyrazol-1-yl}-piperidin-1-carboxylic acid tert-butyl ester]	9.30	5.52
COc1ccc(Nc2nc3cccc(-c4ccc(S(C)(=O)=O)cc4)n3n2)cc1 [Example 91, [5-(4-Methanesulfonyl-phenyl)-[1,2,4]triazolo[1,5-a]pyridin-2-yl]-(4-methoxy-phenyl)-amine]	8.72	5.59
CCCOc1ccc(Cl)cc1-c1cccn2nc(Nc3ccc4c(c3)CCNCC4)nc12 [Example 307, [8-(5-Chloro-2-propoxy-phenyl]-[1,2,4]triazolo[1,5a]pyridine-2-yl]-(2,3,4,5-tetrahydro-benzo[d]azepin-7-yl)-amine]	6.08	5.98
Fc1ccc(-n2cc(-c3cccn4nc(Nc5ccc(C6CCNCC6)cc5)nc34)cn2)cc1 [Example 282]	8.67	6.00
CS(=O)(=O)c1ccc(-c2cccc3nc(Nc4cccc(S(C)(=O)=O)c4)nn23)cc1 [Example 94, (3-Methanesulfonyl-phenyl)-[5-(4-methanesulfonyl-phenyl)-[1,2,4]triazolo[1,5-a]pyridin-2-yl]-amine]	8.03	5.52
CN(C)C(=O)CN1CCc2ccc(Nc3nc4c(-c5cc(F)ccc5OCC(F)F)cccn4n3)cc2CC1 [Example 378, 2-(7-{8-[2-(2,2-Difluoro-ethoxy)-5-fluoro-phenyl]-[1,2,4]triazolo[1,5-a]pyridin-2-ylamino}-1,2,4,5-tetrahydro-3-benzazepin-3-yl)-N,N-dimethyl-acetamide]	6.28	5.90
CN1CCN(c2cccc(Nc3nc4c(NCc5ccccc5F)cccn4n3)c2)CC1 [Example 395, N(8)-(2-Fluoro-benzyl)-N(2)-[3-(4-methyl-piperazin-1-yl)-phenyl]-[1,2,4]triazolo[1,5-a]pyridine-2,8-diamine]	6.74	5.83
CN1CCN(c2ccc(Nc3nc4cccc(-c5cccc(NS(C)(=O)=O)c5)n4n3)cc2)CC1 [Example 83, N-(3-{2-[4-(4-Methyl-piperazin-1-yl)-phenylamino]-[1,2,4]triazolo[1,5-a]pyridin-5-yl}-phenyl)-methanesulfonamide]	7.72	6.26
CS(=O)(=O)CCN1CCc2ccc(Nc3nc4c(-c5cc(C(F)(F)F)ccc5Cl)cccn4n3)cc2CC1 [Example 268, [8-(2-Chloro-5-trifluoromethyl-phenyl)-[1,2,4]triazolo[1,5-a]pyridin-2-yl]-[3-(2-methanesulfonyl-ethyl)-2,3,4,5-tetrahydro-1H-benzo[d]azopin-7-yl]-amine]	7.77	6.00
CP(C)(=O)c1ccc(-c2cccn3nc(Nc4cccc(C5CCN(CCS(C)(=O)=O)CC5)c4)nc23)cc1 [Example 203, {8-[4-(Dimethyl-phosphinoyl)-phenyl]-[1,2,4]triazolo[1,5-a]pyridin-2-yl}-{3-[1-(2-methanesulfonyl-ethyl)-piperidin-4-yl]-phenyl}-amine]	6.78	5.00
c1cncc(-c2cccn3nc(Nc4ccc(N5CCOCC5)cc4)nc23)c1 [Example 6, (4-Morpholin-4-yl-phenyl)-(8-pyridin-3-yl-[1,2,4]triazolo[1,5-a]pyridin-2-yl)-amine]	7.59	5.52

SMILES	pIC50 (human JAK2)	pIC50 (human FAK)
COc1ccc(Nc2nc3cccc(-c4ccc(CN5CCS(=O)(=O)CC5)cc4)n3n2)cc1 [Example 95, 5-{4-[(1,1-dioxidothiomorpholin-4-yl)methyl]phenyl}-N-(4-methoxyphenyl)[1,2,4]triazolo[1,5-a]pyridin-2-amine]	9.00	5.70
CC(=O)Nc1cccc(Nc2nc3c(-c4ccc(S(C)(=O)=O)cc4)cccn3n2)c1 [Example 267, N-{3-[8-(4-Methanesulfonyl-phenyl)-[1,2,4]triazolo[1,5-a]pyridin-2-ylamino]-phenyl}-acetamide]	8.46	5.00
CN1CCN(c2cccc(Nc3nc4c(-c5cccc(S(C)(=O)=O)c5)cccn4n3)c2)CC1 [Example 60, [8-(3-Methanesulfonyl-phenyl)-[1,2,4]triazolo[1,5-a]pyridin-2-yl]-[3-(4-methyl-piperazin-1-yl)-phenyl]-amine]	8.19	5.90
CN(c1ncccc1CNc1cccn2nc(Nc3cccc(S(C)(=O)=O)c3)nc12)S(C)(=O)=O [Example 135, N-(3-{[2-(3-Methanesulfonyl-phenylamino)-[1,2,4]triazolo[1,5-a]pyridin-8-ylamino]-methyl}-pyridin-2-yl)-N-methyl-methanesulfonamide]	7.11	6.67
COc1cc(Cl)ccc1-c1cccn2nc(Nc3ccc4c(c3)CCN(CC(=O)N(C)C)C4)nc12 [Example 331, 2-{6-[8-(4-Chloro-2-methoxy-phenyl)-[1,2,4]-triazolo[1,5-a]pyridin-2-ylamino]-3,4-dihydro-1H-isoquinolin-2-yl}-N,N-dimethyl-acetamide]	7.67	5.19
CN1CCN(c2cccc(Nc3nc4c(NCc5cccnc5N(C)S(C)(=O)=O)cccn4n3)c2)CC1 [Example 136, N-Methyl-N-[3-({2-[3-(4-methyl-piperazin-1-yl)-phenylamino]-[1,2,4]triazolo[1,5-a]pyridin-8-ylamino}-methyl)-pyridin-2-yl]-methanesulfonamide]	7.11	7.15
CN(C)C(=O)CN1CCc2ccc(Nc3nc4c(-c5cc(S(C)(=O)=O)ccc5OCC(F)F)cccn4n3)cc2CC1 [Example 373, 2-(7-{8-[2-(2,2-Difluoro-ethoxy)-5-methanesulfonyl-phenyl]-[1,2,4]triazolo[1,5-a]pyridin-2-ylamino}-1,2,4,5-tetrahydro-3-benzazepin-3-yl)-N,N-dimethyl-acetamide]	6.30	5.00
CN1CCN(c2cccc(Nc3nc4c(OCc5cccc(Cl)c5)cccn4n3)c2)CC1 [Example 261, [8-(3-Chloro-benzyloxy)-[1,2,4]triazolo[1,5-a]pyridin-2-yl]-[3-(4-methyl-piperazin-1-yl)-phenyl]-amine]	7.00	5.80
CN(c1ncccc1Nc1cccn2nc(Nc3ccc(OCCN4CCCC4)cc3)nc12)S(C)(=O)=O [Example 132, N-Methyl-N-(3-{2-[4-(2-pyrrolidin-1-yl-ethoxy)-phenylamino]-[1,2,4]triazolo[1,5-a]pyridin-8-ylamino}-pyridin-2-yl)-methanesulfonamide]	7.48	5.52
CN1CCN(c2ccc(Nc3nc4c(CCc5ccccc5N(C)S(C)(=O)=O)cccn4n3)cc2)CC1 [Example 194, N-Methyl-N-[2-(2-{2-[4-(4-methyl-piperazin-1-yl)-phenylamino]-[1,2,4]triazolo[1,5-a]pyridin-8-yl}-ethyl)-phenyl]-methanesulfonamide]	6.66	7.38
CN1CCN(c2ccc(Nc3nc4c(Nc5ccccc5CS(C)(=O)=O)cccn4n3)cc2)CC1 [Example 164, N(8)-(2-Methanesulfonylmethyl-phenyl)-N(2)-[4-(4-methyl-piperazin-1-yl)-phenyl]-[1,2,4]triazolo[1,5-a]pyridine-2,8-diamine]	7.66	5.89
COc1ccccc1CNc1cccn2nc(Nc3ccc(N4CCN(C)CC4)cc3)nc12 [Example 387, N(8)-(2-Methoxy-benzyl)-N(2)-[4-(4-methyl-piperazin-1-yl)-phenyl]-[1,2,4]triazolo[1,5-a]pyridine-2,8-diamine]	7.91	6.26
CCOc1ccc(Cl)cc1-c1cccn2nc(Nc3ccc4c(c3)CCNCC4)nc12 [Example 310, [8-(5-Chloro-2-ethoxy-phenyl]-[1,2,4]triazolo[1,5a]pyridine-2-yl]-(2,3,4,5-tetrahydro-benzo[d]azepin-7-yl)-amine]	7.48	5.91
FC(F)COc1ccc(C(F)(F)F)cc1-c1cccn2nc(Nc3ccc4c(c3)CCNCC4)nc12 [Example 328]	6.59	6.00
CS(=O)(=O)c1ccc(-c2cccn3nc(NCCc4cccnc4)nc23)cc1 [Example 407, [8-(4-Methanesulfonyl-phenyl)-[1,2,4]triazolo[1,5-a]pyridin-2-yl]-(2-pyridin-3-yl-ethyl)-amine]	5.70	5.00
